According to publication PMC12259270, “Sensory neuron–expressed FGF13 controls nociceptive signaling in diabetic neuropathy models” (The Journal of Clinical Investigation, 2025):
Where “and” joins values, the source holds several entries; their conditions need not be identical. Equal entries are not always repeated. Residues, ends and D or L forms follow the SMILES beside them. *: point of attachment. NHPh = c1ccc(N*)cc1

Target: T1, human Nav1.7 (Homo sapiens, UniProt Q15858)
T1 construct: expressed in transfected cells; host or cells: HEK293 stably expressing human Nav1.7
T1 sequence (Q92913 1-192 partner limits assumed): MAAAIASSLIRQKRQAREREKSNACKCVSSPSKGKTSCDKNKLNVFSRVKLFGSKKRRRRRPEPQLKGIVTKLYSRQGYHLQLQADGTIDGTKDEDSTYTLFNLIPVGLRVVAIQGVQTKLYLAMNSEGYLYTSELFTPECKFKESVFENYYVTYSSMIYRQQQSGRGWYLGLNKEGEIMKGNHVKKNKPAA
T1 sequence (Q15858 1-1977 isoform Q15858-3): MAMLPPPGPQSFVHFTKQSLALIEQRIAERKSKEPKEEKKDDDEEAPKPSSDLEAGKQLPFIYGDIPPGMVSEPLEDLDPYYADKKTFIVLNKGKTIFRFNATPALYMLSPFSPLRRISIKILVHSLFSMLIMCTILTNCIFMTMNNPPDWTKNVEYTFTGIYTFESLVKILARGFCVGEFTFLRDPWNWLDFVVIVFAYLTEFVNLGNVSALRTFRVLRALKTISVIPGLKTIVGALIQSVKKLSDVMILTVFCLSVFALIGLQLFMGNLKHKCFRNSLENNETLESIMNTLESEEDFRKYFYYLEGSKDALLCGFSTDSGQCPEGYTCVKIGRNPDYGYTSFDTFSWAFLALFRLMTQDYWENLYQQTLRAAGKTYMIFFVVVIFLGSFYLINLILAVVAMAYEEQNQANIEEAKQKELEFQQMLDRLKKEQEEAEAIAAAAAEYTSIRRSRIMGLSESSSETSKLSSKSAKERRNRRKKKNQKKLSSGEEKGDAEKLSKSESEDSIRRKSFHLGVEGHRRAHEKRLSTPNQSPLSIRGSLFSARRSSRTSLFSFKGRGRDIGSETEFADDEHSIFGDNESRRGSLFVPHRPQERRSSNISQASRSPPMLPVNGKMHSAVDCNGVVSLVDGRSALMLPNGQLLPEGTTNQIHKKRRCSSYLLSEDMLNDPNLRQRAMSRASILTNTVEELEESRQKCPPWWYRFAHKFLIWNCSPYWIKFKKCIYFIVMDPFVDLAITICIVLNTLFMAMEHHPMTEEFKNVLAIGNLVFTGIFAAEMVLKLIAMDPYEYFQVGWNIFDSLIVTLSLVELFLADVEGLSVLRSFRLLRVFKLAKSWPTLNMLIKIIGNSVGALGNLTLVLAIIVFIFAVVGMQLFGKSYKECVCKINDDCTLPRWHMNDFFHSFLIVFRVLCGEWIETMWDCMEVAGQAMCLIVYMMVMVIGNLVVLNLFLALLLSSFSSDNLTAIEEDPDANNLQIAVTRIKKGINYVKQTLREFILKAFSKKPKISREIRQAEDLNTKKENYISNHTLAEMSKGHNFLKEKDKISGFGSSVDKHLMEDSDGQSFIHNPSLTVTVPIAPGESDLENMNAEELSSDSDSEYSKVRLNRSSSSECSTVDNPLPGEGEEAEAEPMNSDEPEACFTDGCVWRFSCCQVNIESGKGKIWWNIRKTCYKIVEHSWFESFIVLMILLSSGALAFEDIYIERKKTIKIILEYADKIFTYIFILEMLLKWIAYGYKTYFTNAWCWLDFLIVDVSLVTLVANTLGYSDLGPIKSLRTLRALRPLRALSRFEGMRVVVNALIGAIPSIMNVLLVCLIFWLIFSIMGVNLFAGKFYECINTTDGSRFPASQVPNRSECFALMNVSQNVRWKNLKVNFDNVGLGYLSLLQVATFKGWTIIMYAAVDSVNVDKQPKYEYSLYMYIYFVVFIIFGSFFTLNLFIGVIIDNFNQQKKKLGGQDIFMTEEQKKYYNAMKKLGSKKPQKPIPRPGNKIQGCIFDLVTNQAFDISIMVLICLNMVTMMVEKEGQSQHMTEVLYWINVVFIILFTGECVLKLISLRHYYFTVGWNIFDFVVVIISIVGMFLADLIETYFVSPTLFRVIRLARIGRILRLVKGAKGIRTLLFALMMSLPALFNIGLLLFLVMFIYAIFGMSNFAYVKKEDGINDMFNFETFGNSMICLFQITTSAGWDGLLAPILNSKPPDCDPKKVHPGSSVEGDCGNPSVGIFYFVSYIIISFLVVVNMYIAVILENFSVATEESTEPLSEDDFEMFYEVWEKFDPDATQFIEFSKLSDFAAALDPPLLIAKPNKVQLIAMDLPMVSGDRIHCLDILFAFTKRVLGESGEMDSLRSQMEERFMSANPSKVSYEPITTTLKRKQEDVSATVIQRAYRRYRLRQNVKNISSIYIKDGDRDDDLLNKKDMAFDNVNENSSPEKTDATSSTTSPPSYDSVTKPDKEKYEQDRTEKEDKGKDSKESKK
Assay: Whole-cell patch-clamp, HEK293 cells stably expressing human Nav1.7 with GFP or FGF13-GFP
Format: cell-based
Design: Nav1.7 repriming time course, Mean / Figure 4I, Mean versus Time (ms): unit not given here
Conditions: for Figure 4G, Mean per step (normalized): N 10; for Figure 4H, Mean per step (step 1 = 100): N 9
Protocol: Whole-cell patch clamp electrophysiology
HEK293-Nav1.7 cells, HEK293 stably expressing human Nav1.6 (HEK-Nav1.6), HEK293 stably expressing human Nav1.5 (HEK-Nav1.5), human hIPSC-derived sensory neurons (RealDRGTM from Anatomic Incorporated 1020F1-1M) and donor-derived DRG neurons were plated at low density on glass coverslips and processed for whole-cell patch clamp electrophysiology in voltage-clamp and/or current clamp mode. Whole-cell patch electrophysiological experiments were conducted following previously published studies (26). Current densities were obtained by dividing INa amplitude by membrane capacitance. Current –voltage relationships were generated by plotting current density as a function of the […]. Conductance (G Na) was calculated by the […]
where INa is the current amplitude at voltage Vm, and Erev is the Na+ reversal potential.
Activation curves were derived by plotting normalized GNa as a function of test potential and fitted using […]
Where GNa,Max is the maximum conductance, Va is the membrane potential of half-maximal activation, Em is the membrane voltage and k is the slope factor. For steady -state inactivation, normalized current amplitude (INa/INa,Max) at the test potential was plotted as a function of prepulse potential (Vm) and fitted using the […]
Where Vh is the potential of half-maximal inactivation, E m is the membrane voltage, and k is the slope factor.
Transient INa inactivation decay was estimated with the standard exponential equation. Inactivation time constant (tau, τ) was fitted with the following equation: […]
where I(t) is the amplitude of the current at time t and Iss is the steady-state current during a single voltage-step.
The goodness of fitting was determined by correlation coefficient (R), and the cutoff of R was set at 0.85. To observe effects on long-term inactivation (LTI), a four-step protocol was employed during which cells were subjected to four 0 mV, 20 ms depolarization pulses separated by −90 mV, 40 ms recovery intervals. To control for various cell sizes, the current densities were calculated by dividing INa peak current amplitude/membrane capacitance (Cm). To represent the fraction of channels entering into LTI, the peak INa observed during depolarization cycles 2-4 was normalized to the peak INa observed during depolarization cycle 1 (INa/INa,Cycle 1) and plotted as a function of the depolarization cycle.
The cumulative (frequency-dependent) use-dependency was determined by applying 20 pulses with a depolarization to −10 mV (50 ms duration) and 50 ms recovery intervals with a train of 20 pulses at 10 Hz from a holding potential at -70 mV. The current pulses were normalized to the first reco rded pulse and the currents at the 2nd to 20th pulses were compared. The same train was used to record use-dependency at various frequencies […]
The rate of recovery from inactivation was recorded at -80 mV with a standard repriming voltage protocol.
The cells were prepulsed to -20 mV for 20 ms to inactivate all currents, then driven back to the recovery potential (Vrec) for increasing recovery durations before the test pulse to 0 mV. The maximum pulse rate was 0.5 Hz. The […]
follows previous publications (16). The time constants were estimated from single exponential decay to time courses measured at recovery potentials ranging from -140 to -60 mV with the protocol as mentioned above.
Electrophysiological Recordings
HEK293 cells: Electrophysiological recordings in HEK293 stably expressing Nav1.7 (HEK-Nav1.7), Nav1.5 (HEK-Nav1.5) or Nav1.6 (HEK-Nav1.6) were performed at room temperature using a MultiClamp 700B or an Axopatch 200B amplifier (Molecular Devices) after incubating coverslips for 60 minutes either with 0.1% DMSO or 50 μM PW164 or ZL192 in the extracellular solution. The composition of recording solutions consisted of the […]
following salts: extracellular (mM): 140 NaCl, 3 KCl, 1 MgCl2, 1 CaCl2, 10 HEPES, 10 glucose, pH 7.3; […]
intracellular (mM): 130 CH3O3 SCs, 1 EGTA, 10 NaCl, 10 HEPES, pH 7.3. […]

CC(=O)N[C@@H](Cc1ccccc1)C(=O)N[C@@H](CC(C)C)C(=O)N1CCC[C@H]1C(=O)N[C@@H](CCCCN)C(=O)Nc1ccccc1 [ZL192] (Ac-FLPK-NHPh)
Figure 4G, Mean per step (normalized) (Nav1.7 + FGF13-GFP, Steps 20): 0.8672
Figure 4I, Mean versus Time (ms) (Nav1.7 + FGF13-GFP, Time (ms) 2, N 7): -2.382
Figure 4I, Mean versus Time (ms) (Nav1.7 + FGF13-GFP, Time (ms) 5, N 7): -10.2316
Figure 4I, Mean versus Time (ms) (Nav1.7 + FGF13-GFP, Time (ms) 9, N 7): -21.032
Figure 4I, Mean versus Time (ms) (Nav1.7 + FGF13-GFP, Time (ms) 17, N 7): -28.22
Figure 4I, Mean versus Time (ms) (Nav1.7 + FGF13-GFP, Time (ms) 33, N 7): -35.2152
Figure 4I, Mean versus Time (ms) (Nav1.7 + FGF13-GFP, Time (ms) 65, N 7): -41.6453
Figure 4I, Mean versus Time (ms) (Nav1.7 + FGF13-GFP, Time (ms) 129, N 7): -47.08
Figure 4I, Mean versus Time (ms) (Nav1.7 + FGF13-GFP, Time (ms) 257, N 7): -58.7924
Figure 4I, Mean versus Time (ms) (Nav1.7 + FGF13-GFP, Time (ms) 513, N 7): -60.0808
Figure 4I, Mean versus Time (ms) (Nav1.7 + FGF13-GFP, Time (ms) 1025, N 7): -61.473
Figure 4I, Mean versus Time (ms) (Nav1.7 + FGF13-GFP, Time (ms) 2000, N 7): -62.66
Current density pA/pF (Figure 4D), individual cells (Nav1.7 + GFP): -42.7131 pA/pF and -116.886 pA/pF and -86.2507 pA/pF and -55.3628 pA/pF and -87.5203 pA/pF and -98.7467 pA/pF and -44.4757 pA/pF and -64.4298 pA/pF and -57.1752 pA/pF and -107.666 pA/pF and -47.813 pA/pF
Figure 4H, Mean per step (step 1 = 100) (Nav1.7 + GFP, Steps 1): 100
Figure 4G, Mean per step (normalized) (Nav1.7 + GFP, Steps 1): 1
Figure 4H, Mean per step (step 1 = 100) (Nav1.7 + GFP, Steps 2): 67.9415
Figure 4H, Mean per step (step 1 = 100) (Nav1.7 + GFP, Steps 3): 62.3546
Figure 4G, Mean per step (normalized) (Nav1.7 + GFP, Steps 3): 0.8342
Figure 4H, Mean per step (step 1 = 100) (Nav1.7 + GFP, Steps 4): 60.931
Figure 4G, Mean per step (normalized) (Nav1.7 + GFP, Steps 5): 0.7578
Figure 4G, Mean per step (normalized) (Nav1.7 + GFP, Steps 10): 0.7548
Figure 4G, Mean per step (normalized) (Nav1.7 + GFP, Steps 15): 0.7445
Figure 4G, Mean per step (normalized) (Nav1.7 + GFP, Steps 20): 0.751
Figure 4I, Mean versus Time (ms) (Nav1.7 + GFP, Time (ms) 2, N 6): -1.684
Figure 4I, Mean versus Time (ms) (Nav1.7 + GFP, Time (ms) 5, N 6): -3.032
Figure 4I, Mean versus Time (ms) (Nav1.7 + GFP, Time (ms) 9, N 6): -5.9665
Figure 4I, Mean versus Time (ms) (Nav1.7 + GFP, Time (ms) 17, N 6): -10.1843
Figure 4I, Mean versus Time (ms) (Nav1.7 + GFP, Time (ms) 33, N 6): -13.6758
Figure 4I, Mean versus Time (ms) (Nav1.7 + GFP, Time (ms) 65, N 6): -16.716
Figure 4I, Mean versus Time (ms) (Nav1.7 + GFP, Time (ms) 129, N 6): -20.6484
Figure 4I, Mean versus Time (ms) (Nav1.7 + GFP, Time (ms) 257, N 6): -23.8114
Figure 4I, Mean versus Time (ms) (Nav1.7 + GFP, Time (ms) 513, N 6): -25.3409
Figure 4I, Mean versus Time (ms) (Nav1.7 + GFP, Time (ms) 1025, N 6): -26.7193
Figure 4I, Mean versus Time (ms) (Nav1.7 + GFP, Time (ms) 2000, N 6): -29.0414
